A word on the pIC50: it is −log10 of the IC50, conventionally taken in molar units. As usually defined, the NOAEL is the highest tested level that showed no adverse finding.

Details of data set [1]: method as in Investigator’s Brochure (IB). The settings on record: single oral dose, ferrets; ref Investigator’s Brochure (IB); cited from earlier work.
The subject of another data set is CYP2B6. Further details: method as in Investigator’s Brochure (IB). The settings on record: ref Investigator’s Brochure (IB), cited from earlier work.
For data set [2] the following is noted: cited from earlier work.
The conditions of data set [3]: rat, cited from earlier work.
Data set [4] can be described thus: Cardiovascular assessment in dogs, single dose GLP study (UV4-COV-0023). In kind it is in vivo. The settings on record: dog, 50 mg/kg. The text has this: dependent from lowest to highest partitioning in mouse, rat, human, and dog. Mean blood cell partitioning ranged from 29.7% to 37.2% in mouse, 32.1% to 35.1% in rat, 32.7% to 53.3% in human, and 58.6% to 63.8% in dog. […]
hepatocytes. Metabolism was minimal and appears to involve O-demethylation, oxidation, and direct glucuronidation of UV-4. Three metabolites were tentatively identified in mouse and dog hepatocytes, whereas only the O-demethylation and oxidation metabolites, but not the direct glucuronidation product of UV-4, were found in human hepatocytes.
Following a single oral dose, UV-4 appears to be rapidly excreted with t1/2 values ranging from 2 hours in ferrets, 3 to 5 hours in mice and rats, and 4 to 9 hours in dogs. In rats, urinary excretion of UV-4 after an oral dose of UV-4B was rapid, with the highest percent dose excreted in the initial 0 to 4 hour period after dosing. […]
Based on the dog NOAEL [10 mg/kg/dose TID] and the appropriate conversion recommended in the FDA guidance (e.g., 60 kg body weight for humans), the HED for the NOAEL of UV-4B in dog is 333 mg TID. Considering that the lowest dose tested in dogs (2 mg/kg TID or expressed as HED, 67 mg TID) was associated with decreases in PLT count (mild), increases in aPTT (very mild), increases in AST (up to 3x BL), and histopathological changes, a 100-fold safety factor was applied to the NOAEL. […]

Data set [5] has as its system human ether-a-go-go-related gene potassium channel. The settings on record: at UV-4 concentration more than 20-fold higher than expected at the planned ceiling dose in humans; ref Investigator’s Brochure (IB); cited from earlier work.
Where [6] appears, read: dog, 2 TID mg/kg, Day 28 (Recovery).
[7] abbreviates: dog, 10 TID mg/kg (NOAEL), Day 28 (Recovery).
The mark [8] stands for this setting: dogs, 10 mg/kg/dose TID, ref Investigator’s Brochure (IB).

pIC50: −log10 of the molar value. Structures can show the parent of a compound that is named as a salt. Where two headings read alike, the source gives them in different places.

Take `COCCCCCCCCCN1C[C@H](O)[C@@H](O)[C@H](O)[C@H]1CO` [UV-4, N-(9’-methoxynonyl)-1-deoxynojirimycin]: the t1/2 in data set [1] was 2 h. For the same compound, the “Estimated IC50” value with CYP2B6 (CYP2B6) is over 191 µg/mL. Besides, in the data set with CYP2B6 (CYP2B6, read-out: Estimated IC50), the pIC50 was under 3.22. The “Direct inhibition of CYP2B6” value in the data set on CYP2B6 (in vitro) is given as “weak direct inhibition”.

`COCCCCCCCCCN1C[C@H](O)[C@@H](O)[C@H](O)[C@H]1CO` [UV-4B, N-(9’-methoxynonyl)-1-deoxynojirimycin hydrochloride]: in data set [2] (setting [6]), the AST result is “−”, the Decreased thymus weight entry is “−”, the Lymphocyte depletion result is “−” and the PLT result is on record as “−”. The Decreased thymus weight result in data set [2] (dog, 10 TID mg/kg (NOAEL), Day 28 (Recovery), females) is given as “−(F)”. Also, the Decreased thymus weight entry in data set [2] (dog, 10 TID mg/kg (NOAEL), Day 28 (Recovery), males) is given as “↓(M)”. In data set [2] (setting [7]), the ALT result is “−”; the AST entry is reported as “−”; the “Inverted AST/ALT ratio” value is given as “−”; the “Lymphoid depletion in thymus, spleen, lymph nodes and GALT” value is listed as “−”. For the same compound, in data set [2] (setting [7]), the Nonformed feces result is “−”, the PLT entry was “−”, the Reticulocyte count entry is “−” and the aPTT result was “−”. Also, in data set [2] (setting [8]), the “Increase in ALT” value was “up to 2.9 x BL”, the “Increase in AST” value is “up to 9.7 x BL” and the “Increase in aPTT” value is given as 2.2 x BL. The NOAEL in data set [2] (dogs, 14 days of TID administration, ref Investigator’s Brochure (IB)) is listed as 30 mg/kg/day. The “No observed effect level (NOEL)” value in data set [2] (dogs, 14 days, lowest dose exceeded the NOEL, ref Investigator’s Brochure (IB)) is reported as under 2 mg/kg/dose TID. Also, the NOAEL in data set [2] (dogs, 14 days, ref Investigator’s Brochure (IB)) is reported as 10 mg/kg/dose TID. Besides, the “Average (male and female) AUC(0-8)” value in data set [2] (dogs, end of dosing phase, at NOAEL 30 mg/kg/day, ref Investigator’s Brochure (IB)) is reported as 10,940 ng•h/mL. Further, the “Dose with increased WBC and lymphocyte count” value in data set [3] (printed men) is reported as ≥ 10 mg/kg/dose, TID. For the same compound, in data set [3] (women [sic]), the “Dose with swollen paws/legs and perioral appearance and red skin, paws, and/or feet” value is recorded as < 60 mg/kg/dose, TID. Besides, in data set [3], the “Cardiovascular Effects” value is “none observed”; the “Dose with decreased PLT and reticulocyte count” value is on record as ≥ 10 mg/kg/dose, TID; the “Dose with erosion/ulcer, inflammation, decreased mucus in stomach, hyperplasia/hyperkeratosis” value is recorded as ≥ 25 mg/kg/dose, TID; the “Dose with extramedullary hematopoiesis decreased in spleen and liver” value is on record as 60 mg/kg/dose, TID. The “Dose with increased AST and ALT” value in data set [3] was ≥ 10 mg/kg/dose, TID. The “Multiple of predicted minimum clinically efficacious dose at which arterial pulse pressure decreased” value in data set [4] was “approximately 30 fold”. In addition, the “Inhibition of hERG potassium channel” value in data set [5] is given as “did not inhibit”.

The values are drawn from PMC9387934, “Randomized single oral dose phase 1 study of safety, tolerability, and pharmacokinetics of Iminosugar UV-4 Hydrochloride (UV-4B) in healthy subjects” (PLoS Neglected Tropical Diseases, 2022).
